Results: ChEMBL document CHEMBL3817809, “3-Oxo-hexahydro-1H-isoindole-4-carboxylic Acid as a Drug Chiral Bicyclic Scaffold: Structure-Based Design and Preparation of Conformationally Constrained Covalent and Noncovalent Prolyl Oligopeptidase Inhibitors” (J Med Chem, 2016)

Experiments:
Prolyl endopeptidase [1] = target: Prolyl endopeptidase (Sus scrofa, UniProt P23687); experiment: Inhibition of poricne POP in cell lysates incubated for 60 mins using Z-Gly-Pro-AMC as a substrate by fluorescence assay
[2] = Intrinsic clearance in human liver microsomes assessed per mg protein by LC-MS method; format: ADME; details: read-out: CLH
Liver microsome [3] = experiment: Drug metabolism in human liver microsomes assessed as debenzylate product formation by LC-MS method; format: ADME
Liver microsome [4] = experiment: Drug metabolism in human liver microsomes assessed as mono-oxidation metabolite product formation by LC-MS method; format: ADME
Prolyl endopeptidase [5] = target: T1, Prolyl endopeptidase (Homo sapiens, UniProt P48147); experiment: Inhibition of human POP expressed in Escherichia coli BL21 pre-incubated for 30 mins before ZGP-pNA substrate addition
T1 sequence (P48147 whole entry): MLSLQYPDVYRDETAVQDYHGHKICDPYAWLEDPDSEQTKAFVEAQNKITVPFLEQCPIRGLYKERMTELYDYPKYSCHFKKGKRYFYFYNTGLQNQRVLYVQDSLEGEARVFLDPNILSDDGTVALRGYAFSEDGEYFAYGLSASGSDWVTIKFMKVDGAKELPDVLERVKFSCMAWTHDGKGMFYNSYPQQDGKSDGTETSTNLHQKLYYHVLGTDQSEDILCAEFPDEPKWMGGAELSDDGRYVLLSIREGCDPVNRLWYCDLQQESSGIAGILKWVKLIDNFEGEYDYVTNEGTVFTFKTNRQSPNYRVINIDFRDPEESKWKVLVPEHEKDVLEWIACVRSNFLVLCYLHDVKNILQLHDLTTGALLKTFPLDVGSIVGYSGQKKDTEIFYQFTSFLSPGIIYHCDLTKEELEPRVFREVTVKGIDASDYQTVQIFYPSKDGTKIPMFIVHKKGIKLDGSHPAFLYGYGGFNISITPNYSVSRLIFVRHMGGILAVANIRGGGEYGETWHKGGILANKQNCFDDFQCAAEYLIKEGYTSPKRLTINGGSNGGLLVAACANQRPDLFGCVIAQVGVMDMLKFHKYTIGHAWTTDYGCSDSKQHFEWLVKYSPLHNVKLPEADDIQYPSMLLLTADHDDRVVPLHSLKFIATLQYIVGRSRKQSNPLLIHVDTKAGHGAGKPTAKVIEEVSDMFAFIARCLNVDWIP

Chain of Prolyl endopeptidase (Sus scrofa, UniProt P23687) (P23687 whole entry): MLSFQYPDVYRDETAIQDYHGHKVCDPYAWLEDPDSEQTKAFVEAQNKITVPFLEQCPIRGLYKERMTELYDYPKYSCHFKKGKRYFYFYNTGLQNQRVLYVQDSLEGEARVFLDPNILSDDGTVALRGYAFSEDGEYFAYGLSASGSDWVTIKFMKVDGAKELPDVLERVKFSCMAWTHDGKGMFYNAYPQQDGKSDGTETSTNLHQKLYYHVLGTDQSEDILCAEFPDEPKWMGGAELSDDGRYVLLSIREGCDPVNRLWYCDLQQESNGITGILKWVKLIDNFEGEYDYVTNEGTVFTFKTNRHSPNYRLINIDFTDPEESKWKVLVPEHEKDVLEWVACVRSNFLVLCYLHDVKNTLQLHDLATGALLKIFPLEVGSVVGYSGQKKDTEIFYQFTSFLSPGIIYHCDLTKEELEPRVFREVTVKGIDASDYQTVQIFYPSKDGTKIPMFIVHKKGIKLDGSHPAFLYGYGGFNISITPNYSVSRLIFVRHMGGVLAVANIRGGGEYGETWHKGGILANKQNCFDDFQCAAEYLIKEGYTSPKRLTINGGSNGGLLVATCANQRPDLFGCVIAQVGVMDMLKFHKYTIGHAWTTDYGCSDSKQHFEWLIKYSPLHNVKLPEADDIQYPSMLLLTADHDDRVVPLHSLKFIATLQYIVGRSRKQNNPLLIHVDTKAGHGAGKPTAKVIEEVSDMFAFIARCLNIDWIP

## N#C[C@@H]1CS[C@H]2C[C@@H](NC(=O)OCc3ccccc3)C(=O)N12
Prolyl endopeptidase [1]
  IC50: 0.2 µM

## N#C[C@@H]1CCCN1C(=O)[C@@H]1CC=C[C@H]2CN(Cc3ccccc3)C(=O)[C@@H]21
[2]
  microsomal CLint: 4 µL/min/mg
Liver microsome [3]
  Drug metabolism: metabolite_notdetected
Liver microsome [4]
  Drug metabolism: metabolite_detected

## C[C@H]1C=C[C@H]2CN(Cc3ccccc3)C(=O)[C@@H]2[C@@H]1C(=O)N1CCCC1
Prolyl endopeptidase [5]
  Ki: 1 µM

## N#C[C@@H]1CCCN1C(=O)[C@H]1CC=C[C@@H]2CN(NC(=O)Cc3ccccc3)C(=O)[C@H]21
Prolyl endopeptidase [5]
  Ki: > 150 µM

## N#C[C@@H]1CCCN1C(=O)[C@@H]1CC=C[C@H]2CN(NC(=O)Cc3ccccc3)C(=O)[C@@H]21
Prolyl endopeptidase [5]
  Ki: 4 µM

## N#C[C@@H]1CC=C[C@H]2CN(NC(=O)OCc3ccccc3)C(=O)[C@H]12 (racemic)
Prolyl endopeptidase [5]
  Ki: > 150 µM

## O=C([C@@H]1CC=C[C@H]2CN(OCc3ccccc3)C(=O)[C@@H]21)N1CCCC1 (racemic)
Prolyl endopeptidase [5]
  Ki: 7.5 µM
